Test results from ChEMBL document CHEMBL1201862, “PubChem BioAssay data set” (2004).
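In this assay, cells in 96-well plates receive the compound at five concentrations for 48 hours. Endpoints are linearly interpolated between the surrounding concentrations. At the GI50, growth is halved.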 Calls of active or inactive are those of the source. No stated cut-off is given here; in the data, active = GI50 up to about 1.1 µM and inactive = higher.

Experiments:
Assay in all cases: NCI-60 cell line screen, 48 h
NCI-H522 = system: NCI-H522
M14 = system: M14
SF-539 = system: SF-539
MOLT-4 = system: MOLT-4
CCRF-CEM = system: CCRF-CEM
K562 = system: K562
RPMI-8226 = system: RPMI-8226
KM12 = system: KM12
OVCAR-8 = system: OVCAR-8
UACC-257 = system: UACC-257
HT-29 = system: HT-29
A549 = system: A549
OVCAR-5 = system: OVCAR-5
HOP-92 = system: HOP-92
SK-MEL-5 = system: SK-MEL-5
ACHN = system: ACHN
EKVX = system: EKVX
DU-145 = system: DU-145
SNB-75 = system: SNB-75
IGROV-1 = system: IGROV-1

Row | SMILES | GI50 (NCI-H522) | GI50 (M14) | GI50 (SF-539) | GI50 (MOLT-4) | GI50 (CCRF-CEM) | GI50 (K562) | GI50 (RPMI-8226) | GI50 (KM12) | GI50 (OVCAR-8) | GI50 (UACC-257) | GI50 (HT-29) | GI50 (A549) | GI50 (OVCAR-5) | GI50 (HOP-92) | GI50 (SK-MEL-5) | GI50 (ACHN) | GI50 (EKVX) | GI50 (DU-145) | GI50 (SNB-75) | GI50 (IGROV-1)
1 | O=Nc1c(-c2c(O)[nH]c3ccccc23)[nH]c2ccccc12 [INDIRUBIN-3-MONOXIME] | 3.48 µM (inactive) | 5.61 µM (inactive) | 20 µM (inactive) | 4.15 µM (inactive) | 4.4 µM (inactive) | 2.67 µM (inactive) | 3.95 µM (inactive) | 0.0865 µM (active) | 4.45 µM (inactive) | 18.3 µM (inactive) | 7.14 µM (inactive) | 3.8 µM (inactive) | 7.26 µM (inactive) | 8.77 µM (inactive) | 3.99 µM (inactive) | 1.94 µM (inactive) | 1.9 µM (inactive) | 2.63 µM (inactive) | 3.88 µM (inactive) | 2.67 µM (inactive)
2 | CSc1ccc(/C=C/C(=O)c2nc3ccccc3[nH]2)cc1 | 12.2 µM (inactive) | 15.9 µM (inactive) | 4.45 µM (inactive) | 3.02 µM (inactive) | 3.49 µM (inactive) | 4.41 µM (inactive) | 3.02 µM (inactive) | 14.5 µM (inactive) | 37.2 µM (inactive) | 20.6 µM (inactive) | 15.7 µM (inactive) | 18.2 µM (inactive) | 25.2 µM (inactive) | 77.1 µM (inactive) | 21.2 µM (inactive) | 18.9 µM (inactive) | 17.8 µM (inactive) | 1.87 µM (inactive) | 13.2 µM (inactive) | 30.3 µM (inactive)
3 | Cc1cc(=O)n2nc(CSc3nnc(S)s3)sc2n1 | > 100 µM (inactive) | > 100 µM (inactive) | > 100 µM (inactive) | > 100 µM (inactive) | > 100 µM (inactive) | > 100 µM (inactive) | > 100 µM (inactive) | > 100 µM (inactive) | > 100 µM (inactive) | > 100 µM (inactive) | > 100 µM (inactive) | > 100 µM (inactive) | > 100 µM (inactive) | > 100 µM (inactive) | > 100 µM (inactive) | > 100 µM (inactive) | > 100 µM (inactive) | > 100 µM (inactive) | > 100 µM (inactive) | > 100 µM (inactive)
4 | O=c1[nH]c(=O)n(C2COC(CO)C2O)cc1F (stereo not given) | 43.7 µM (inactive) | 50.6 µM (inactive) | 3.52 µM (inactive) | 39 µM (inactive) | 74.8 µM (inactive) | 56.5 µM (inactive) | 36.5 µM (inactive) | > 100 µM (inactive) | 57 µM (inactive) | 60.4 µM (inactive) | 39 µM (inactive) | 17.3 µM (inactive) | > 100 µM (inactive) | 50.8 µM (inactive) | 21.4 µM (inactive) | 38.5 µM (inactive) | 89.9 µM (inactive) | 29.8 µM (inactive) | 31 µM (inactive) | 32.4 µM (inactive)
5 | CCCC[C@@H](C)/C=C1\CN2CCC[C@H]2[C@@](C)(O)[C@@H]1O | 56.1 µM (inactive) | 53 µM (inactive) | 62.2 µM (inactive) | > 100 µM (inactive) | 12.3 µM (inactive) | > 100 µM (inactive) | > 100 µM (inactive) | > 100 µM (inactive) | 65.5 µM (inactive) | > 100 µM (inactive) | 43.2 µM (inactive) | 43.7 µM (inactive) | > 100 µM (inactive) | 17.2 µM (inactive) | 79.1 µM (inactive) | 42 µM (inactive) | > 100 µM (inactive) | 17.3 µM (inactive) | 20.2 µM (inactive) | 51.6 µM (inactive)
6 | [O-][S@@+]1c2ccc3ccccc3c2N[C@@H]2[C@H]1[C@H]1C=C[C@@H]2C1 | 21.5 µM (inactive) | 48.4 µM (inactive) | > 100 µM (inactive) | 26.6 µM (inactive) | 23.6 µM (inactive) | 37.1 µM (inactive) | 31.6 µM (inactive) | 31.1 µM (inactive) | 35.8 µM (inactive) | 56.6 µM (inactive) | 34.9 µM (inactive) | 57.5 µM (inactive) | > 100 µM (inactive) | 38.4 µM (inactive) | 28 µM (inactive) | > 100 µM (inactive) | > 100 µM (inactive) | 46.9 µM (inactive) | 16.9 µM (inactive) | 21.2 µM (inactive)
7 | O=C1C=C(Br)c2c(Br)sc(Br)c21 | 2.07 µM (inactive) | 4.54 µM (inactive) | 5.13 µM (inactive) | 2.77 µM (inactive) | 1.59 µM (inactive) | 4.67 µM (inactive) | 2.99 µM (inactive) | 17 µM (inactive) | 3.9 µM (inactive) | 1.89 µM (inactive) | 13.5 µM (inactive) | 24.5 µM (inactive) | 19.1 µM (inactive) | 3 µM (inactive) | 16.3 µM (inactive) | 4.62 µM (inactive) | 18 µM (inactive) | 14.9 µM (inactive) | 18.3 µM (inactive) | 5.35 µM (inactive)
8 | CC1(O)C(=O)OC2CC([C@]3(O)CCC4[C@@H]5C[C@H]6O[C@]67[C@@H](O)C=CC(=O)[C@]7(C)C5CC[C@@]43C)C1(C)C2 (stereo not given in full) | 1.82 µM (inactive) | 12.6 µM (inactive) | 18.2 µM (inactive) | 2.89 µM (inactive) | 2.03 µM (inactive) | 3.6 µM (inactive) | 3.24 µM (inactive) | 27 µM (inactive) | 25.1 µM (inactive) | 11.5 µM (inactive) | 17.1 µM (inactive) | 38.7 µM (inactive) | 23.8 µM (inactive) | 3.44 µM (inactive) | 16.9 µM (inactive) | 18.8 µM (inactive) | 45 µM (inactive) | 26.5 µM (inactive) | 29.8 µM (inactive) | 23.1 µM (inactive)
9 | C[C@@H](c1ccccc1)C(CC#N)[C@H]1CCC[C@]1(O)C#Cc1ccc2c(c1)OCO2 (stereo not given in full) | 15.3 µM (inactive) | 16.9 µM (inactive) | 10.6 µM (inactive) | 8.02 µM (inactive) | 14.8 µM (inactive) | 18.1 µM (inactive) | 23.2 µM (inactive) | 16.7 µM (inactive) | 16.9 µM (inactive) | 18.2 µM (inactive) | 15.2 µM (inactive) | 16.3 µM (inactive) | 16.6 µM (inactive) | 14 µM (inactive) | 18.6 µM (inactive) | 16.6 µM (inactive) | 19.5 µM (inactive) | 16.8 µM (inactive) | 16.5 µM (inactive) | 14.3 µM (inactive)
